# Tests used:
# HIV-1 PR subtype A = target: T1, HIV-1 PR subtype A (Human immunodeficiency virus type 1 group M subtype A, UniProt P24740); assay: In vitro PR inhibition assay, subtype A; assay type: biochemical; set-up: key: [+] or [−] indicating PR inhibition or no inhibition, respectively; [+] or [−] indicating PR inhibition or no inhibition, respectively; conditions: compound at 80 μM, 37 °C
# T1 construct: HIV type 1 (HIV-1) PR is a homodimeric enzyme of 99 amino acids; made in house
# Protocol: (§1) The compounds were obtained from the NCI/DTP and solubilized in DMSO (Sigma) for use in HIV-1 PR inhibition assays. Cloning, expression, and purification procedures of HIV-1 PRs obtained from […] samples have been previously described elsewhere. For detailed information of mutations harbored in the multi PI-resistant HIV-1PR as compared to the PI-sensitive PR, full amino acid sequences is given in supplementary materials (Figure S1). HIV-1 PRs subtype variants were assayed kinetically at 80 μM for inhibitory activity at 37 °C using selected compounds as previously described.
# (§2) We explored the hypothesis that compounds selected in silico for binding to the hinge region of PR are effective as inhibitors of HIV-1 replication, including multi-PI resistant viruses, in human cells. Our of 139,739 compounds, the top 40 highest-scoring compounds targeting the structural pockets in the hinge of the PR (Figure S1) were obtained from the NCI/DTP for use in HIV PR inhibition assays. Compounds were initially tested in vitro at 80 μM to screen for inhibitory activity against PR subtypes A, B or C. Compounds inhibiting at least one subtype of the PR were considered as candidate compounds for further experiments.
# PBMCs = assay: Cell viability assay (CellTiter 96 AQueous) in PBMCs; assay type: cell-based, human; conditions: 200 μM, day 7
# Protocol: (§3) Viability in presence of compounds was measured at day 4 or 7, TZM-bl cells or PBMCs, using CellTiter 96 AQueous one solution cell proliferation assay (Promega) following manufacturer instructions. Toxicity of compounds was defined as a concentration that produced more than 10% decline in viability of TZM-bl cells or PBMCs were viable at days 4 or 7 of exposure, respectively, compared with DMSO-treated controls.
# HIV-1AD [1] = assay: Anti-viral activity alone or combined with 25 µM RTV, relative to 25 µM RTV, HIV-1AD; assay type: cell-based
# Protocol: (§4) Anti-viral activity was evaluated ex vivo by adding the highest non-toxic concentration of compound or 25uM RTV (Sigma) solubilized in DMSO on the day of infection by PI-sensitive (HIV-1AD) or multi (RTV and IDV) PI-resistant (HIV-1AD02) HIV-1 variants at 25 or 45 TCID50 per ml for PBMCs or TZM-bl cells, respectively. Replication was determined on post-infection day 7 in PBMC by measuring supernatant p24 antigen levels (Perkin-Elmer), or day 4 in TZM-bl cells by measuring luciferase activity using the luciferase assay system (Promega, Madison, WI) and the microplate luminometer Monolight 3096 (BD Biosciences, San Jose, CA). Inhibitory concentration (IC)50 was calculated based on anti-viral activity in TZM-bl cells with a nonlinear regression analysis (GraphPad Prism 6 Software). Reduction of viral replication by more than 50% was considered successful anti-viral activity. Combinatorial effect of drug with RTV was tested at IC50, and higher or lower concentrations than IC50.
# (§5) Combinatorial effect of drug was tested combining 25 μM RTV and higher or lower concentrations than IC50 of lead compounds. Combinations of compounds 18, 22, 27, 32 or 35 with 25 μM RTV were non-toxic in TZM-bl cells. Combination with RTV increased antiviral activity of all compounds against both PI-sensitive and PI-resistant HIV-1 variants (Figure 2).
# (§6) Table S2. Fold change of compounds (18, 22, 27, 32 or 35) alone or in combination with 25 µM RTV compared to 25 µM
# (§7) RTV. P values are reported in parenthesis with Bonferroni correction with significance p<0.0055; fold change >1 indicates […]
# (§8) are highlighted in yellow; (-) not performed. (1) Anti-viral activity against HIV-1; (2) Compounds identification number.
# (§9) Fold change of compounds compared to 25 µM RTV as reference […]
# HIV-1AD [2] = assay: Anti-viral activity in TZM-bl cells, PI-sensitive HIV-1AD (luciferase); assay type: cell-based
# Protocol: as §4
# HIV-1AD02 [3] = assay: Anti-viral activity alone or combined with 25 µM RTV, relative to 25 µM RTV, HIV-1AD02; assay type: cell-based
# Protocol: as §4, §5, §6, §7, §8, §9
# HIV-1 PR subtype C = target: T2, HIV-1 PR subtype C (Human immunodeficiency virus type 1 group M subtype C, UniProt Q75002); assay: In vitro PR inhibition assay, subtype C; assay type: biochemical; set-up: key: [+] or [−] indicating PR inhibition or no inhibition, respectively; [+] or [−] indicating PR inhibition or no inhibition, respectively; conditions: compound at 80 μM, 37 °C
# T2 construct: HIV type 1 (HIV-1) PR is a homodimeric enzyme of 99 amino acids; made in house
# Protocol: as §1, §2
# TZM-bl cells = assay: Cell viability assay (CellTiter 96 AQueous) in TZM-bl cells; assay type: cell-based, human
# Protocol: as §3
# HIV-1AD02 [4] = assay: Anti-viral activity in TZM-bl cells, multi PI-resistant HIV-1AD02 (luciferase); assay type: cell-based
# Protocol: as §4
# HIV-1 PR subtype B = target: T3, HIV-1 PR subtype B (Human immunodeficiency virus type 1 group M subtype B, UniProt P04585); assay: In vitro PR inhibition assay, subtype B; assay type: biochemical; set-up: key: [+] or [−] indicating PR inhibition or no inhibition, respectively; [+] or [−] indicating PR inhibition or no inhibition, respectively; conditions: compound at 80 μM, 37 °C
# T3 construct: HIV type 1 (HIV-1) PR is a homodimeric enzyme of 99 amino acids; made in house
# Protocol: as §1, §2
# [5] = highest non-toxic concentration, day 4 luciferase
# T2 sequence (Q75002 493-591): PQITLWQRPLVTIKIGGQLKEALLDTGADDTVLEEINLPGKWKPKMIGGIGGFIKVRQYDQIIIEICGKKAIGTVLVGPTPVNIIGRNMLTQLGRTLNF
# T1 sequence (P24740 482-580): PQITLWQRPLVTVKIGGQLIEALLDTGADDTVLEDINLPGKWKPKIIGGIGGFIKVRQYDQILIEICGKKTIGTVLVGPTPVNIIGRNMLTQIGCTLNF
structure (smiles),measurement,setting,value
Nc1nc(N)c(N=Nc2ccc(C(=O)O)c(O)c2)c(N)n1 [Compound 18],Inhibition of PR subtype A,HIV-1 PR subtype A,+
same,reduction of cell viability,PBMCs,28%
same,Fold change compared to 25 µM RTV,HIV-1AD [1]; compound 25 µM with 25 µM RTV,0.54 fold
same,Fold change compared to 25 µM RTV,HIV-1AD [1]; compound 50 µM with 25 µM RTV,0.32 fold
same,Fold change compared to 25 µM RTV,HIV-1AD [1]; compound 100 µM with 25 µM RTV,0.40 fold
same,Fold change compared to 25 µM RTV,"HIV-1AD [1]; compound alone, 25 µM",1.12 fold
same,Fold change compared to 25 µM RTV,"HIV-1AD [1]; compound alone, 50 µM",1.13 fold
same,Fold change compared to 25 µM RTV,"HIV-1AD [1]; compound alone, 100 uM",0.87 fold
same,IC50,HIV-1AD [2]; PI-sensitive variant,62.7 µM
same,reduction of replication of HIV-1AD,HIV-1AD [2]; [5],more than 80%
same,Fold change compared to 25 µM RTV,"HIV-1AD02 [3]; HIV-1AD02, compound 25 µM with 25 µM RTV",0.75 fold
same,Fold change compared to 25 µM RTV,"HIV-1AD02 [3]; HIV-1AD02, compound 50 µM with 25 µM RTV",0.60 fold
same,Fold change compared to 25 µM RTV,"HIV-1AD02 [3]; HIV-1AD02, compound 100 µM with 25 µM RTV",0.53 fold
same,Fold change compared to 25 µM RTV,"HIV-1AD02 [3]; HIV-1AD02, compound alone, 25 µM",3.42 fold
same,Fold change compared to 25 µM RTV,"HIV-1AD02 [3]; HIV-1AD02, compound alone, 50 µM",3.24 fold
same,Fold change compared to 25 µM RTV,"HIV-1AD02 [3]; HIV-1AD02, compound alone, 100 uM",2.41 fold
same,Inhibition of PR subtype C,HIV-1 PR subtype C,+
same,toxicity (more than 10% decline in viability),"TZM-bl cells; 200 μM, day 4",non-toxic
same,toxicity of combination with 25 μM RTV,TZM-bl cells; compound combined with 25 μM RTV,non-toxic
same,reduction of replication of HIV-1AD02,HIV-1AD02 [4]; [5],more than 80%
same,IC50,HIV-1AD02 [4]; multi PI-resistant variant,68.5 µM
same,Inhibition of PR subtype B,HIV-1 PR subtype B,+

# — paper PMC8694022, “Molecular Docking-Based Screening for Novel Inhibitors of the Human Immunodeficiency Virus Type 1 Protease that Effectively Reduce the Viral Replication in Human Cells” (Journal of AIDS & clinical research, 2021)
